In US8927598B2, “Treating oncogenic Ras driven cancers” (Duke University, priority 2008, dated 2015):

Legend:
[1] = test system: human pancreatic cell line MiaPaCa-2; test: Tumor growth of MiaPaCa-2 cells injected into SCID-beige mice given L-NAME in drinking water; type: in vivo; details: L-NAME 0.5 g/liter in drinking water, vs untreated drinking water
Excerpt: Eight SCID-beige immunocompromised mice. (The Jackson Laboratory, Bar Harbor, Me.). were each injected simultaneously with one million cells of the human pancreatic cell line MiaPaCa-2 (available from the ATCC, identified as ATCC CRL-1420). Then 4 mice were provided with drinking water supplemented with L-NAME at a concentration of 0.5 g/liter and 4 were provided with drinking water that was not supplemented. Measurements were taken at the site of the injection to calculate tumor volume. Results are shown in FIG. 1 which is a graph of Tumor Volume vs. Time in days after injection where the diamonds denote measurements on untreated mice and the triangles denote measurements on L-NAME fed mice.

[2] = test system: pancreatic cancer cell line; test: Tumor growth in SCID-beige mice of pancreatic cancer cell lines stably infected with siRNA plasmid; type: in vivo, human; details: cells expressing the siRNA
Method: Methods for creating stably infected cell lines are set below:
Day 1 • Morning—split a 10 cm plate of confluent 293T/17 cells (ATCC CRL-11268) 1:6 in αMEM supplemented with 10% Fetal Calf Serum (FCS) (no antibiotics) into a 10 cm plate so as to be 40-50% confluent at time of transfection.
Day 2 • Morning—mix in tissue culture hood in microcentrifuge tube: 12 μg pCL-10A1, 3 μg pSUPER-RETRO-PURO plasmid (OligoEngine, Seattle, Wash.) engineered to encode eNOS, RNA, NRas siRNA or HRas siRNA, and serum free media to 200 μl total volume. Tap tube side gently to mix and incubate at room temperature 15-45 minutes. Add dropwise to 293T/17 cells with micropipette and incubate overnight at 37° C.
Day 3 • Morning—repeat transfection protocol from day 2. Once the transfection mix is added to the cells, it must be incubated for at least 8 hours. Evening—remove media and replace with 6 ml of cell specific media of cells to be infected.
Day 4 • Morning—split a confluent 10 cm plate of pancreatic cancer cell line to be infected in cell type specific media so that they will reach 25-35% confluency the following morning.
Day 5 • Morning—aspirate media in a 10 ml syringe, attach 0.45 μm acrodisc filter to the bottom of the syringe. Filter the media into a 15 ml conical tube. […]
Method of testing pancreatic cancer cell line for tumor growth is set forth below: • 1. Expand pancreatic cancer cells stably infected with pSUPER-RETRO-PURO plasmid (OligoEngine) engineered to encode eNOS siRNA, NRas siRNA, or HRas siRNA to a total count of at least 1×10^7 cells/mouse, typically 4-8 15 cm tissue culture dishes at full confluency (number of dishes determined by cell size). • 2. […] Weigh each mouse for baseline reading and track tumor progression over the weeks to months by measuring large and small diameters and extrapolating tumor volume utilizing the equation: Tumor Volume=(small diameter)^2[…](large diameter/2).

human eNOS = test: Knockdown of eNOS expression, immunoblot; type: cell-based
Excerpt: The siRNA of SEQ ID NO:1 is produced as follows: Complementary oligonucletides obtained from Integrated DNA Technologies (Coralville, USA) and annealed together were cloned into the Hind III and Bgl II sites of pSUPER-RETRO (OligoEngine, Seattle, Wash.). The sense strand of this insert is identified in the Sequence Listing as SEQ ID NO: 4. Transcription of this sequence by RNA polymerase produces an shRNA having the Sequence Listing as SEQ ID NO: 5. This is processed using Dicer complex to remove the hairpin to give the double stranded RNA sequence of SEQ ID NO: 1 which specifically knocks down the expression of human eNOS Exemplary dosage is 100-1600 micrograms based on a clinical trial of the siRNA compound AGN211745.
A test for determining that eNOS expression is reduced is by immunoblot by using commercially available phosphor-S1177 eNOS antibody.

human NRas = test: Knockdown of NRas expression, immunoblot; type: cell-based
Excerpt: (§1) The siRNA of SEQ ID NO: 2 is produced as follows: Complementary oligonucleotides obtained from Integrated DNA Technologies (Coralville, USA) and annealed together were cloned into the Hind III and Bgl II sites of pSUPER-RETRO (OligoEngine, Seattle, Wash.). The sense strand of this insert is identified in the Sequence Listing as SEQ ID NO: 8. Transcription of this sequence by RNA polymerase produces an shRNA having the sequence identified in the Sequense Listing as SEQ ID NO: 9. This is processed using Dicer complex to remove the hairpin to give the double stranded RNA sequence of SEQ ID NO: 2 which specifically knocks down the expression of human NRas.
A test for determining that NRas expression is reduced is by immunoblot by using commercially available NRas antibody.

human HRas = test: Knockdown of HRas expression, immunoblot; type: cell-based
Excerpt: as §1, with “3” for “2”, “6.” for “8.”, “7.” for “9.”, “HRas.” for “NRas.”
A test for determining that HRas expression is reduced is by immunoblot by using commercially available HRas antibody.

Molecule: COC(=O)[C@@H](N)CCCNC(=N)N[N+](=O)[O-] [L-NAME, N^G-nitro-L-arginine methyl ester]
- Tumor growth (tumor volume vs. time in days after injection) [1]: Tumors grew more slowly
- Reduction in tumor size at termination of the experiment ([1]; p<0.01): ~3 fold

Molecule: SEQ ID NO: 1: novel siRNA generated by the applicant that knocks down the expression of human eNOS (AAGAGUUAUAAGAUCCGCUUC; chemistry not given here; listed as Homo sapiens)
- Tumor initiation and growth of cancer cell lines in mice [2]: blocks tumor initiation and growth
- Knockdown of expression of human eNOS (human eNOS): efficiently knocks down

Molecule: SEQ ID NO: 2: novel siRNA generated by the applicant that knocks down the expression of human NRas (CAAGAAGAGUACAGUGCCAUG; listed as RNA, chemistry not given here; listed as Homo sapiens)
- Tumor initiation and growth of cancer cell lines in mice [2]: inhibits tumor growth
- Knockdown of expression of NRas proteins (human NRas): efficiently knocks down

Molecule: SEQ ID NO: 3: published siRNA (Yang, G., et al., Oncogene 22, 5694-5701 (2003)) that knocks down the expression of human HRas (GGCAAGAGUGCGCUGACCAUC; listed as RNA, chemistry not given here; listed as Homo sapiens)
- Tumor initiation and growth of cancer cell lines in mice [2]: inhibits tumor growth
- Knockdown of expression of HRas proteins (human HRas): efficiently knocks down
